From publication PMC8002391, “A High-Throughput Screening System Based on Fluorescence-Activated Cell Sorting for the Directed Evolution of Chitinase A” (International Journal of Molecular Sciences, 2021)

Target: T1, ChiA (chitinase A) (Bacillus licheniformis, UniProt B7UB89)
T1 construct: synthetic chiA gene in pET22b(+), in frame with pelB signal for periplasmic expression in E. coli BL21 (DE3); whole cells assayed
Experiment: fluorescence microtiter plate assay with whole E. coli cells expressing chiA (4MU release)
Format: cell-based
Details: 0.1 M sodium acetate pH 6.0; 25 µL cells + 25 µL 0.5 mg/mL 4MUTC; empty-vector cells as control

T1 sequence (B7UB89 1-580): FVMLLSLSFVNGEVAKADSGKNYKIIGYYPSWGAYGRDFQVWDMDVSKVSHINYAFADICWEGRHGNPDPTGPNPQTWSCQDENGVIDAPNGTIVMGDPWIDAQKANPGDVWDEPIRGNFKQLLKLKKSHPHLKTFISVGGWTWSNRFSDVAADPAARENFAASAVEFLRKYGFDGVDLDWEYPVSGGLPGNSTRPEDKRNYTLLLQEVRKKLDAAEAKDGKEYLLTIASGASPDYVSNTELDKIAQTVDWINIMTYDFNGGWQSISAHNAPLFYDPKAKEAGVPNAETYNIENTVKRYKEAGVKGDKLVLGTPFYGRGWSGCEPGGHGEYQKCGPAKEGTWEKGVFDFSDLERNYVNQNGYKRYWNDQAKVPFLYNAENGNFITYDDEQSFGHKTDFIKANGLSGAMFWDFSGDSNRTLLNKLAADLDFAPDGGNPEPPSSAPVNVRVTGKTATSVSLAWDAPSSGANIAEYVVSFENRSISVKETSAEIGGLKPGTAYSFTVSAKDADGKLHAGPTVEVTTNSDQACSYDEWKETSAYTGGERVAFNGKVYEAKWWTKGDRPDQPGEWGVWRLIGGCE

CC(=O)N[C@H]1[C@H](Oc2ccc3c(C)cc(=O)oc3c2)O[C@H](CO)[C@@H](O[C@@H]2O[C@H](CO)[C@@H](O[C@@H]3O[C@H](CO)[C@@H](O)[C@H](O)[C@H]3NC(C)=O)[C@H](O)[C@H]2NC(C)=O)[C@@H]1O [4-methylumbelliferyl β-D-N,N′,N″-triacetyl chitotrioside]
fluorescence microtiter plate assay with whole E. coli cells expressing chiA (4M): comparing E. coli cells expressing chiA to those transformed with the empty vector
